Data as given in patent US12370202B2, “Methods and compositions for inhibiting the NLRP3 inflammasome and/or LON protease” (TRITERPENOID THERAPEUTICS, INC., priority 2019, dated 2025).

Legend:
[1] = system: primary cultures of patient-derived GBM cells; test: Cell viability in primary cultures of human GBM; format: cell-based
Protocol: (§1) To define the capacity of CDDO-2P-IM to suppress the growth and viability of GBM, several well-characterized human GBM cell lines (U251, U-87MG, LN227, Gli36Δ5), primary cultures of patient-derived GBM cells (UVM04, D028), and normal human astrocytes (provided by Dr. Arti Gaur, Dartmouth College) were utilized.
(§2) The activity of CDDO-2P-IM in cultures of human GBM was assessed and similar nanomolar (nM) potency was observed. […] These changes in confluence observed by Incucyte® corresponded with a reduction in cell viability. Doses of CDDO-2P-IM that result in complete cell death of the LN227, U251 and U-87MG cell lines had no effect on the viability of primary human astrocytes in vitro (not shown).

Caspase 1 = Caspase 1 activation in LPS-primed BMDM, immunoblotting (caspase-p10); format: cell-based, mouse; details: different doses (30-1000 nM) 15 min before ATP (5 mM) 45 min
Protocol: FIG. 5 depicts a Western blot. CDDO-Im, CDDO-2P-Im, and CDDO-3P-Im inhibit Caspase 1 activation. LPS primed BMDM were treated with different doses of CDDO-Im, CDDO-2P-Im, or CDDO-3P-Im for 15 min before ATP (5 mM) was added for 45 min. Medium supernatant (SUP) and cell extracts (Lys) were analyzed by immunoblotting.
The effects of the pyridyl derivatives of CDDO-IM, (specifically, CDDO-2P-Im and CDDO-3P-Im) on NLRP3 inflammasome activation were tested in mouse BMDMs. Cells were first primed with LPS for 4 hours, then pretreated with specific doses of either CDDO-Im, CDDO-2P-IM or CDDO-3P-Im (30-1000 nM) for 15 min before ATP was added for another 45 min. CDDO-Im and its pyridyl derivatives inhibited the amount of caspase-p10 (an auto-processed fragment of caspase-1) released into cell culture supernatants in a dose-dependent manner as measured by Western blot (FIG. 5). […] The effect on caspase-1 activation is specific for the NLRP3 inflammasome as the AIM2 inflammasome activation by poly(dA:dT) was not inhibited by the synthetic CDDO-Im derivatives (data not shown).

U251 = test: GBM cell growth (confluence), IncuCyte; format: cell-based, human; details: not shown
Protocol: as §1, §2

CP10 = test: Ovarian cancer cell growth (confluence), IncuCyte ZOOM; format: cell-based, human
Source text: (§3) FIG. 11 is a set of line graphs. Cisplatin resistant human ovarian cancer cell lines A2780, CP70, OV81, CP10, OVCAR-5 and OVCAR-8 were exposed to CDDO-2P-Im, cisplatin, or a combination of CDDO-2P-Im and cisplatin.
(§4) CDDO-2P-Im suppresses growth of cisplatin-resistant human ovarian cancer cells in vitro. Cisplatin resistant human ovarian cancer cell lines A2780, CP70, OV81, CP10, OVCAR-5 and OVCAR-8 cell were each cultured in a complete medium consisting of RPMI1640, 20% heat-inactivated FBS, 1% penicillin/streptomycin. Cells were cultured in a water jacketed CO2 incubator at 37° C. in a humidified atmosphere consisting of 5% CO2 and 95% air. Continuous live-cell analysis (CLCA) was used as a non-invasive cell monitoring and measurement method based on time-lapse, phase-contrast microscopy and fluorescence imaging, using IncuCyte® ZOOM. Cells were seeded in 96-well plates at densities of either 1×10^4 or 3×10^4 cell/cm^2 followed by addition of a drug dilution series for either CDDO-2P-Im or Cisplatin (P4394, Sigma) dissolved in PBS and diluted in media. […] Reduction in confluence is accompanied by the detachment and death of ovarian cancer cells.

A2780 = test: as above; format: cell-based, human
Source text: as §3, §4

CP70 = test: as above; format: cell-based, human
Source text: as §3, §4

OV81 = test: as above; format: cell-based, human
Source text: as §3, §4

OVCAR-8 = test: as above; format: cell-based, human
Source text: as §3, §4

OVCAR-5 = test: as above; format: cell-based, human
Source text: as §3, §4

LONP1 = LONP1 (Homo sapiens, UniProt P36776); test: Binding to LONP1
Chain of LONP1 (P36776 68-959, species assumed): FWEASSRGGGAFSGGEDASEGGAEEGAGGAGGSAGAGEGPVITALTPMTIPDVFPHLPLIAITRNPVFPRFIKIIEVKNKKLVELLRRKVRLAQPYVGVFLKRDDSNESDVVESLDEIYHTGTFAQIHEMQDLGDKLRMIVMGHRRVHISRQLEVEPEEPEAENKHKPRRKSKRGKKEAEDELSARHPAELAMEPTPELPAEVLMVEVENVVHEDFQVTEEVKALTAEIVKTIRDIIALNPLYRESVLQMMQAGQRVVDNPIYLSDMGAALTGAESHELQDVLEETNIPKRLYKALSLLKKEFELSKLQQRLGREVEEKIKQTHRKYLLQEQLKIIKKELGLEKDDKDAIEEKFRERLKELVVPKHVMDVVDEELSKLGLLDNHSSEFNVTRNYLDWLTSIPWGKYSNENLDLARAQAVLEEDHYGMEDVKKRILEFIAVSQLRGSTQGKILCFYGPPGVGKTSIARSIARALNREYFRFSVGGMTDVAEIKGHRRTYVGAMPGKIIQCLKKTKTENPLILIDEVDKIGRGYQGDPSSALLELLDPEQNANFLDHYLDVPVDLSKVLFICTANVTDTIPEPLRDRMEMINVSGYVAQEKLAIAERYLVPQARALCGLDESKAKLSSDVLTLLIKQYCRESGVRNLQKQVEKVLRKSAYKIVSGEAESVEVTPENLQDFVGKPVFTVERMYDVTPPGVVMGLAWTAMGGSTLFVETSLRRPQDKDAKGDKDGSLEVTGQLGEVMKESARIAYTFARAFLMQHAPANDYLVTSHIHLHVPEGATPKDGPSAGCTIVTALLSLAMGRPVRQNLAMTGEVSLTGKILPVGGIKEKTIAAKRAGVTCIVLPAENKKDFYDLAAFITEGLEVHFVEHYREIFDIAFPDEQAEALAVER

LN227 = test: GBM cell growth (confluence), IncuCyte; format: cell-based, human; details: nanomolar concentrations
Protocol: (§5) FIG. 8 is a set of line graphs. CDDO-2P-Im suppresses growth of TMZ-resistant human GBM cells in vitro. […] Reduction in confluence is accompanied by the detachment and death of GBM cells. The data reveal that the relatively TMZ-resistant U-87MG is equivalent to LN227 in its sensitivity to CDDO-2P-Im.
as §1, §2

U-87MG = test: GBM cell growth (confluence), IncuCyte; format: cell-based, human
Protocol: as §5, §1, §2

NLRP3 = test: Mono-sodium urate (MSU)-induced peritonitis; format: in vivo, Mice; details: MSU crystals 1 mg/mouse i.p.; lavage four to sixteen hours later
Protocol: FIG. 7 is a bar graph. CDDO-Im, CDDO-2P-Im, and CDDO-3P-Im inhibit mono-sodium urate (MSU)-induced peritonitis. Peritoneal cavity IL-1β levels expressed as mean and SEM (n=6).
Mice received intraperitoneal (i.p.) injections of mono-sodium urate (MSU) crystals (1 mg/mouse) in the presence or absence of CDDO-Im, CDDO-2P-Im, or CDDO-3P-Im. Due to its particulate material, MSU crystals are potent activators of the NOD-like receptor NLRP3. Four to sixteen hours later a peritoneal lavage was conducted to collect supernatant from the peritoneal cavity.

[2] = suboptimal doses combined with cisplatin, significance at 0.005 or greater

CC1(C)CC[C@]2(C(=O)n3cnc(-c4ccccn4)c3)CC[C@]3(C)[C@H](C(=O)C=C4[C@@]5(C)C=C(C#N)C(=O)C(C)(C)[C@@H]5CC[C@]43C)[C@@H]2C1 [CDDO-2P-Im, 1-[2-Cyano-3,12-dioxooleana-1,9(11)-dien-28-oyl]-4(-pyridin-2-yl)-1H-imidazole] was tested, and the “concentrations at which a significant reduction in cell viability was observed” value [1] was “below 100 nM”, the “Caspase 1 activation (caspase-p10 released into supernatant)” value (Caspase 1) was “inhibit” and the “confluence (growth)” value (U251) was “dose-dependent reduction”. For the same compound, the “sensitivity (growth)” value (CP10) was “highly sensitive”, the “ovarian cancer cell kill, combination with cisplatin” value (from here on “ovarian cancer cell kill”) (CP10; [2]) was “significant gain” and the “growth (confluence)” value (A2780; nanomolar concentrations) was “suppressed growth in a dose-dependent manner”. The “ovarian cancer cell kill” value (A2780; [2]) was “significant gain”, the “growth (confluence)” value (CP70; nanomolar concentrations) was “suppressed growth in a dose-dependent manner” and the “ovarian cancer cell kill” value (CP70; [2]) was “significant gain”. For the same compound, the “sensitivity (growth)” value (OV81) was “highly sensitive”, the “ovarian cancer cell kill” value (OV81; [2]) was “significant gain” and the “sensitivity (growth)” value (OVCAR-8) was “highly sensitive”. For the same compound, the “ovarian cancer cell kill” value (OVCAR-8; [2]) was “significant gain”, the “sensitivity (growth)” value (OVCAR-5) was “highly sensitive” and the “ovarian cancer cell kill” value (OVCAR-5; [2]) was “significant gain”. For the same compound, the “binding to LONP1” value (LONP1) was “shown to bind LONP1”, the “confluence (growth)” value (LN227) was “dose-dependent reduction” and the “confluence (growth)” value (U-87MG; nanomolar concentrations) was “dose-dependent reduction”. The “GBM cell kill, combination with TMZ” value (U-87MG; suboptimal dose of CDDO-2P-Im combined with TMZ, significance at 0.005 or greater) was “significant gain” and the “MSU-induced peritonitis (peritoneal cavity IL-1β levels)” value (NLRP3) was “inhibit”.
